# Test results published in ChEMBL document CHEMBL3885861, “Open TG-GATES”.
# Species on record: Rattus norvegicus
# Test: Open TG-GATES - Regimen: Daily Repeat
# Assay type: toxicity, organism-based, Sprague-Dawley
# Set-up: regimen Daily Repeat, gender Male, age 6 weeks
# Details: in vivo, po, 300 mg/kg, route gavage, dose level Middle; for APTT / Bas / Eos / Fbg / Hb / Ht / Lym / MCH / MCHC / MCV / Mono / Neu / PT / Plat / RBC / Ret / WBC: tissue Blood; for KIDNEY_L / KIDNEY_R / KIDNEY_TOTAL: tissue Kidney; for LIVER: tissue Liver; for A/G / ALP / ALT / AST / BUN / CRE / Ca / Cl / DBIL / GLC / IP / K / LDH / Na / PL / RALB / TBIL / TC / TG / TP / gamma-GTP: tissue Plasma
smiles,measurement,setting,value
CNC(=C[N+](=O)[O-])NCCSCc1ccc(CN(C)C)o1 [RANITIDINE],TERMINAL_BW,"72 h, time 3 day",231.7 g
same,APTT,"72 h, time 3 day",20.3 s
same,Bas,"72 h, time 3 day",0%
same,Eos,"72 h, time 3 day",1%
same,Fbg,"72 h, time 3 day",234.4 mg/dL
same,Hb,"72 h, time 3 day",13.5 g/dL
same,Ht,"72 h, time 3 day",39.4%
same,Lym,"72 h, time 3 day",78.8%
same,MCH,"72 h, time 3 day",21.9 pg
same,MCHC,"72 h, time 3 day",34.3%
same,MCV,"72 h, time 3 day",63.8 fL
same,Mono,"72 h, time 3 day",3.2%
same,Neu,"72 h, time 3 day",15.8%
same,PT,"72 h, time 3 day",12.4 s
same,Plat,"72 h, time 3 day",118.4 x10_4/uL
same,RBC,"72 h, time 3 day",616.4 x10_4/ul
same,Ret,"72 h, time 3 day",5.1%
same,WBC,"72 h, time 3 day",112.2 x10_2/uL
same,KIDNEY_L,"72 h, time 3 day",1 g
same,KIDNEY_R,"72 h, time 3 day",1 g
same,KIDNEY_TOTAL,"72 h, time 3 day",2 g
same,LIVER,"72 h, time 3 day",11.1 g
same,A/G,"72 h, time 3 day",1.6
same,ALP,"72 h, time 3 day",966.2 IU/L
same,ALT,"72 h, time 3 day",43.4 IU/L
same,AST,"72 h, time 3 day",80 IU/L
same,BUN,"72 h, time 3 day",14.8 mg/dL
same,CRE,"72 h, time 3 day",0.4 mg/dL
same,Ca,"72 h, time 3 day",10.9 mg/dL
same,Cl,"72 h, time 3 day",104 meq/L
same,DBIL,"72 h, time 3 day",0.09 mg/dL
same,GLC,"72 h, time 3 day",196.6 mg/dL
same,IP,"72 h, time 3 day",7.2 mg/dL
same,K,"72 h, time 3 day",4.2 meq/L
same,LDH,"72 h, time 3 day",195.6 IU/L
same,Na,"72 h, time 3 day",141.2 meq/L
same,PL,"72 h, time 3 day",142.8 mg/dL
same,RALB,"72 h, time 3 day",3.4 g/dL
same,TBIL,"72 h, time 3 day",0.1 mg/dL
same,TC,"72 h, time 3 day",78.4 mg/dL
same,TG,"72 h, time 3 day",80 mg/dL
same,TP,"72 h, time 3 day",5.5 g/dL
same,gamma-GTP,"72 h, time 3 day",1.8 IU/L
same,TERMINAL_BW,"[…], time 7 day",260.6 g
same,TERMINAL_BW,"[…], time 14 day",309.4 g
same,TERMINAL_BW,"[…], time 28 day",391.7 g
same,APTT,"[…], time 7 day",20.6 s
same,Bas,"[…], time 7 day",0%
same,Eos,"[…], time 7 day",1%
same,Fbg,"[…], time 7 day",227.4 mg/dL
same,Hb,"[…], time 7 day",14.1 g/dL
same,Ht,"[…], time 7 day",39.9%
same,Lym,"[…], time 7 day",83.6%
same,MCH,"[…], time 7 day",22 pg
same,MCHC,"[…], time 7 day",35.5%
same,MCV,"[…], time 7 day",62 fL
same,Mono,"[…], time 7 day",1.6%
same,Neu,"[…], time 7 day",12.4%
same,PT,"[…], time 7 day",12.4 s
same,Plat,"[…], time 7 day",130.4 x10_4/uL
same,RBC,"[…], time 7 day",644.2 x10_4/ul
same,Ret,"[…], time 7 day",4.8%
same,WBC,"[…], time 7 day",81.6 x10_2/uL
same,APTT,"[…], time 14 day",19.1 s
same,Bas,"[…], time 14 day",0%
same,Eos,"[…], time 14 day",0.8%
same,Fbg,"[…], time 14 day",239.2 mg/dL
same,Hb,"[…], time 14 day",14.6 g/dL
same,Ht,"[…], time 14 day",40.6%
same,Lym,"[…], time 14 day",76.8%
same,MCH,"[…], time 14 day",21.3 pg
same,MCHC,"[…], time 14 day",36%
same,MCV,"[…], time 14 day",59.2 fL
same,Mono,"[…], time 14 day",2.4%
same,Neu,"[…], time 14 day",18.4%
same,PT,"[…], time 14 day",12.1 s
same,Plat,"[…], time 14 day",117.4 x10_4/uL
same,RBC,"[…], time 14 day",687.2 x10_4/ul
same,Ret,"[…], time 14 day",3.9%
same,WBC,"[…], time 14 day",111.2 x10_2/uL
same,APTT,"[…], time 28 day",21 s
same,Bas,"[…], time 28 day",0%
same,Eos,"[…], time 28 day",1.2%
same,Fbg,"[…], time 28 day",216.2 mg/dL
same,Hb,"[…], time 28 day",15.3 g/dL
same,Ht,"[…], time 28 day",43.2%
same,Lym,"[…], time 28 day",81.4%
same,MCH,"[…], time 28 day",20.5 pg
same,MCHC,"[…], time 28 day",35.4%
same,MCV,"[…], time 28 day",58.1 fL
same,Mono,"[…], time 28 day",1.8%
same,Neu,"[…], time 28 day",14%
same,PT,"[…], time 28 day",12.3 s
same,Plat,"[…], time 28 day",110 x10_4/uL
same,RBC,"[…], time 28 day",747 x10_4/ul
same,Ret,"[…], time 28 day",2.2%
same,WBC,"[…], time 28 day",117.7 x10_2/uL
same,KIDNEY_L,"[…], time 7 day",1.1 g
same,KIDNEY_R,"[…], time 7 day",1.1 g
same,KIDNEY_TOTAL,"[…], time 7 day",2.2 g
same,KIDNEY_L,"[…], time 14 day",1.2 g
same,KIDNEY_R,"[…], time 14 day",1.2 g
same,KIDNEY_TOTAL,"[…], time 14 day",2.4 g
same,KIDNEY_L,"[…], time 28 day",1.4 g
same,KIDNEY_R,"[…], time 28 day",1.5 g
same,KIDNEY_TOTAL,"[…], time 28 day",2.9 g
same,LIVER,"[…], time 7 day",11.7 g
same,LIVER,"[…], time 14 day",13.8 g
same,LIVER,"[…], time 28 day",16.3 g
same,A/G,"[…], time 7 day",1.5
same,ALP,"[…], time 7 day",802.2 IU/L
same,ALT,"[…], time 7 day",33.2 IU/L
same,AST,"[…], time 7 day",61.4 IU/L
same,BUN,"[…], time 7 day",14.6 mg/dL
same,CRE,"[…], time 7 day",0.4 mg/dL
same,Ca,"[…], time 7 day",10.6 mg/dL
same,Cl,"[…], time 7 day",103.8 meq/L
same,DBIL,"[…], time 7 day",0.084 mg/dL
same,GLC,"[…], time 7 day",211.6 mg/dL
same,IP,"[…], time 7 day",7.5 mg/dL
same,K,"[…], time 7 day",3.8 meq/L
same,LDH,"[…], time 7 day",159.2 IU/L
same,Na,"[…], time 7 day",141 meq/L
same,PL,"[…], time 7 day",138.2 mg/dL
same,RALB,"[…], time 7 day",3.4 g/dL
same,TBIL,"[…], time 7 day",0.1 mg/dL
same,TC,"[…], time 7 day",72.8 mg/dL
same,TG,"[…], time 7 day",83 mg/dL
same,TP,"[…], time 7 day",5.7 g/dL
same,gamma-GTP,"[…], time 7 day",1.4 IU/L
same,A/G,"[…], time 14 day",1.4
same,ALP,"[…], time 14 day",849.4 IU/L
same,ALT,"[…], time 14 day",36.4 IU/L
same,AST,"[…], time 14 day",70.4 IU/L
same,BUN,"[…], time 14 day",17.4 mg/dL
same,CRE,"[…], time 14 day",0.5 mg/dL
same,Ca,"[…], time 14 day",10.6 mg/dL
same,Cl,"[…], time 14 day",103.6 meq/L
same,DBIL,"[…], time 14 day",0.098 mg/dL
same,GLC,"[…], time 14 day",203.8 mg/dL
same,IP,"[…], time 14 day",7.1 mg/dL
same,K,"[…], time 14 day",4 meq/L
same,LDH,"[…], time 14 day",228.8 IU/L
same,Na,"[…], time 14 day",142.2 meq/L
same,PL,"[…], time 14 day",151.6 mg/dL
same,RALB,"[…], time 14 day",3.5 g/dL
same,TBIL,"[…], time 14 day",0.2 mg/dL
same,TC,"[…], time 14 day",68.6 mg/dL
same,TG,"[…], time 14 day",142.4 mg/dL
same,TP,"[…], time 14 day",6 g/dL
same,gamma-GTP,"[…], time 14 day",1 IU/L
same,A/G,"[…], time 28 day",1.3
same,ALP,"[…], time 28 day",642.2 IU/L
same,ALT,"[…], time 28 day",34.6 IU/L
same,AST,"[…], time 28 day",60.2 IU/L
same,BUN,"[…], time 28 day",18 mg/dL
same,CRE,"[…], time 28 day",0.5 mg/dL
same,Ca,"[…], time 28 day",10.5 mg/dL
same,Cl,"[…], time 28 day",102.8 meq/L
same,DBIL,"[…], time 28 day",0.1 mg/dL
same,GLC,"[…], time 28 day",200 mg/dL
same,IP,"[…], time 28 day",6.9 mg/dL
same,K,"[…], time 28 day",3.6 meq/L
same,LDH,"[…], time 28 day",112 IU/L
same,Na,"[…], time 28 day",141.2 meq/L
same,PL,"[…], time 28 day",138.4 mg/dL
same,RALB,"[…], time 28 day",3.4 g/dL
same,TBIL,"[…], time 28 day",0.2 mg/dL
same,TC,"[…], time 28 day",64.6 mg/dL
same,TG,"[…], time 28 day",125.6 mg/dL
same,TP,"[…], time 28 day",6.1 g/dL
same,gamma-GTP,"[…], time 28 day",1 IU/L
